# Data: ChEMBL document CHEMBL5291721, “A preclinical secondary pharmacology resource illuminates target-adverse drug reaction associations of marketed drugs” (Nat Commun, 2023)
# What was measured:
# [1] = target: Kappa-type opioid receptor (Homo sapiens, UniProt P41145)
# [2] = target: T1, 5-hydroxytryptamine receptor 1A (Homo sapiens, UniProt P08908); assay type: functional, cell-based
# T1 sequence (P08908 whole entry): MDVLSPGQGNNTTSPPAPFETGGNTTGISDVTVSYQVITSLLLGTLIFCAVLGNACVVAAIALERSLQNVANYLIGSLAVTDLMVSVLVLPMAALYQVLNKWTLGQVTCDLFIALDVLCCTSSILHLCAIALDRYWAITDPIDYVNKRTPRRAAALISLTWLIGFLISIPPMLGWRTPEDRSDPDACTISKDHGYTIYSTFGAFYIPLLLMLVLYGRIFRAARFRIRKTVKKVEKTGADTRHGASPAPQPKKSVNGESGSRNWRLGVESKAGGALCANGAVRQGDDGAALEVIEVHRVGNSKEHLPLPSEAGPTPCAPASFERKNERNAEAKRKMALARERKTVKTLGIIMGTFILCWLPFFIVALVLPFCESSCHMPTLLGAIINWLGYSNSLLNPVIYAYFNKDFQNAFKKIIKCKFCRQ
# [3] = target: T2, Cholecystokinin receptor type A (Homo sapiens, UniProt P32238)
# T2 sequence (P32238 whole entry): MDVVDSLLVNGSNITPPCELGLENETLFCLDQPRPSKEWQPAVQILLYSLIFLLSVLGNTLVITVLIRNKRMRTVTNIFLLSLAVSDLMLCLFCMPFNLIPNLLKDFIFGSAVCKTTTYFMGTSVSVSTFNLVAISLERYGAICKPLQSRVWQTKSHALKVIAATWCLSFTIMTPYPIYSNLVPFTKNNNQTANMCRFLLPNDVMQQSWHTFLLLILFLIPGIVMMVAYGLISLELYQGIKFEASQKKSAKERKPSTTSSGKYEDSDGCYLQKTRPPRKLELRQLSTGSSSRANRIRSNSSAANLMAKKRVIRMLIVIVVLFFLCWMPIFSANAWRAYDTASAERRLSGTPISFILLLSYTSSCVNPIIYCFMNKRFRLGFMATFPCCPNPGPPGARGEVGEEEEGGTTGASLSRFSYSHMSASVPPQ
# Motilin receptor = Motilin receptor (Homo sapiens, UniProt O43193)
# Motilin receptor, sequence (O43193 whole entry): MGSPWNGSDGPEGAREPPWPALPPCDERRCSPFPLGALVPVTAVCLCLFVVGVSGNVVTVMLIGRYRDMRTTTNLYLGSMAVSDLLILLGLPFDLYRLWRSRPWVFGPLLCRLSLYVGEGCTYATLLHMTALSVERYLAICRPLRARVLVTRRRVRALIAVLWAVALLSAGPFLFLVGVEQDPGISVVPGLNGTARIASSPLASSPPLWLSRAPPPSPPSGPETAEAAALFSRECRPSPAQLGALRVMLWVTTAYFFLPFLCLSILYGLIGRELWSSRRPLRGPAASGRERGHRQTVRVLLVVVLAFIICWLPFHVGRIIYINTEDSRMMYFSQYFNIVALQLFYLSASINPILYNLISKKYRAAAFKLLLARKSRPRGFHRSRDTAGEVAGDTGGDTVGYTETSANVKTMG
# Endothelin-1 receptor = target: T3, Endothelin-1 receptor (Homo sapiens, UniProt P25101)
# T3 sequence (P25101 whole entry): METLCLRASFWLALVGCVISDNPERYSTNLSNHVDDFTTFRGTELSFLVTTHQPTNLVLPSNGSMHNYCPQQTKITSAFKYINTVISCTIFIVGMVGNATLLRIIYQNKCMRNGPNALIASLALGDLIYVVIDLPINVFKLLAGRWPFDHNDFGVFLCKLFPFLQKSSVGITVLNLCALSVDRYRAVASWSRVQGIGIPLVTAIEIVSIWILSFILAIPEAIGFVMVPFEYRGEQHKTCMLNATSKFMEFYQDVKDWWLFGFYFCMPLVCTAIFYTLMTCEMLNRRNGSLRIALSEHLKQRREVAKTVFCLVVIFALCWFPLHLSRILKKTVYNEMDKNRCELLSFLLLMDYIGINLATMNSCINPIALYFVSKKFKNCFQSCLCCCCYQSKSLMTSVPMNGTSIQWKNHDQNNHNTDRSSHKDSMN
# [4] = target: Neuronal acetylcholine receptor subunit alpha-4 (Homo sapiens, UniProt P43681)
# Neuronal acetylcholine receptor subunit alpha-4, sequence (P43681 whole entry): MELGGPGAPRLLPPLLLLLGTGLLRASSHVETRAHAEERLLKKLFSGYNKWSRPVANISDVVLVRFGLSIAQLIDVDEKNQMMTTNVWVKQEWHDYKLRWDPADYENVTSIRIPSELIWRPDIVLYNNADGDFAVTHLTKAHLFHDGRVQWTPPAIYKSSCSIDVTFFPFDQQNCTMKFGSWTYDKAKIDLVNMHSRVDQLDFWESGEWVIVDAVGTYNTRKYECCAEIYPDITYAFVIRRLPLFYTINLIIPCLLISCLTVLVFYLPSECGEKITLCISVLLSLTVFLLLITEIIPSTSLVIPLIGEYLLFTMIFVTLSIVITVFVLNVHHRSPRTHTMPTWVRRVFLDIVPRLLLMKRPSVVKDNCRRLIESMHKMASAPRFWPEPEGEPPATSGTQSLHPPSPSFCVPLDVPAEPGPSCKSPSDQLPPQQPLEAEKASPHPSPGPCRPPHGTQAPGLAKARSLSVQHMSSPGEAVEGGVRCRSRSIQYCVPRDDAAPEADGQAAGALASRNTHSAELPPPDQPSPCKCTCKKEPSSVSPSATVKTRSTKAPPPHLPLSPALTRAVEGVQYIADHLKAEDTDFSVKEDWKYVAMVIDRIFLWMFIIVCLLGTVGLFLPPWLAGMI
# Adenosine receptor A1 = target: T4, Adenosine receptor A1 (Homo sapiens, UniProt P30542)
# T4 sequence (P30542 whole entry): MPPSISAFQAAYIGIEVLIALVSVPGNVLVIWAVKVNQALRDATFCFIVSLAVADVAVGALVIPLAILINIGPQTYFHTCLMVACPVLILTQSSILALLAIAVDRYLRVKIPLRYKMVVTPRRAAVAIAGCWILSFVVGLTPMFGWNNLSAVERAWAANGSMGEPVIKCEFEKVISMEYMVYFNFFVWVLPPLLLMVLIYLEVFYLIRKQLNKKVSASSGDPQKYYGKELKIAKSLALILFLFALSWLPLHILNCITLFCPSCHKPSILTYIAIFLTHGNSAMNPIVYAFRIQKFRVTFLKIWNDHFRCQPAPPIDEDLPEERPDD
# [5] = target: T5, Neuropeptide Y receptor type 1 (Homo sapiens, UniProt P25929)
# T5 sequence (P25929 whole entry): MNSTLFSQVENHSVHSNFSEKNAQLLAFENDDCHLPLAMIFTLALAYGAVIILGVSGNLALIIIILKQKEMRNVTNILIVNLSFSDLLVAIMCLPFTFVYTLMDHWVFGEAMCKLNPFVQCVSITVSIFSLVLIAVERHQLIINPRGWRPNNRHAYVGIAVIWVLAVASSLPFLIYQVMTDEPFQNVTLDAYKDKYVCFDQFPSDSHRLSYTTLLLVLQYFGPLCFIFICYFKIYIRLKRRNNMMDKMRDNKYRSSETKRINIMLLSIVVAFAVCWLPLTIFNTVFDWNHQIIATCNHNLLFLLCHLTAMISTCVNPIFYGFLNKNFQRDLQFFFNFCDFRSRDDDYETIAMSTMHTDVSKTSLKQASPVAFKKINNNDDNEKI
# Note: assay procedure not described here.
# Kappa-type opioid receptor, sequence (P41145 whole entry): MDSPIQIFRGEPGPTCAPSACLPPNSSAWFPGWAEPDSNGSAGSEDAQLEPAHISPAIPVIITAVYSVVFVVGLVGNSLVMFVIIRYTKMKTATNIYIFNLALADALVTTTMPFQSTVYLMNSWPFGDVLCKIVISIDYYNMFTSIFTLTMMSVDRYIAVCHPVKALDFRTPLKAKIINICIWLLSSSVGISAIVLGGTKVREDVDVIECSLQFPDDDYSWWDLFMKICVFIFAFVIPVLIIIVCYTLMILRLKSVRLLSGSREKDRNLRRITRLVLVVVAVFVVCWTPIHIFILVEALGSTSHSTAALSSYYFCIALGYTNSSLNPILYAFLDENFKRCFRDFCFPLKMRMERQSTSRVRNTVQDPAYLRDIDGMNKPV
Structure (SMILES),AC50 [1] [µM],AC50 [2] [µM],AC50 [3] [µM],AC50 (Motilin receptor) [µM],AC50 (Endothelin-1 receptor) [µM],AC50 [4] [µM],AC50 (Adenosine receptor A1) [µM],AC50 [5] [µM]
CCOc1nc2cccc(C(=O)O)c2n1Cc1ccc(-c2ccccc2-c2nnn[nH]2)cc1,> 10,> 30,> 30,> 30,> 30,> 10,> 30,> 10
CCCc1nc2c(C)cc(-c3nc4ccccc4n3C)cc2n1Cc1ccc(-c2ccccc2C(=O)O)cc1,> 30,> 30,2.43,> 30,> 30,> 30,> 30,> 30
CCOc1cc([C@@H](CS(C)(=O)=O)N2C(=O)c3cccc(NC(C)=O)c3C2=O)ccc1OC,–,> 30,> 30,> 30,> 30,> 30,> 30,–
CC(=O)Nc1ccc(CC(=O)O)cc1 [ACTARIT],> 30,> 30,> 30,> 30,> 30,> 30,> 30,> 30
CC(C(=O)O)c1ccc2oc(-c3ccc(Cl)cc3)nc2c1 (stereo not drawn) [BENOXAPROFEN],> 30,> 30,> 30,> 30,> 30,> 30,> 30,> 30
CC=CC1=C(C(=O)O)N2C(=O)[C@@H](NC(=O)[C@H](N)c3ccc(O)cc3)[C@H]2SC1 [CEFPROZIL],> 30,> 30,> 30,> 30,–,> 30,> 30,> 30
CC(C)NC(=N)NC(=N)Nc1ccc(Cl)c(Cl)c1 [CHLORPROGUANIL],> 30,> 30,–,–,–,–,–,–
Cc1cc(C2CCCCC2)n(O)c(=O)c1 [CICLOPIROX],–,–,–,–,–,> 30,–,–
C[N+](C)(C)CCOP(=O)(O)OP(=O)([O-])OC[C@H]1O[C@@H](n2ccc(N)nc2=O)[C@H](O)[C@@H]1O [CITICOLINE],> 30,–,–,–,–,–,–,–
Clc1ccc(Cn2c(CN3CCCC3)nc3ccccc32)cc1 [CLEMIZOLE],–,> 30,> 30,> 30,> 30,> 10,> 30,–
CCC(=O)O[C@]1(C(=O)CCl)[C@@H](C)C[C@H]2[C@@H]3CCC4=CC(=O)C=C[C@]4(C)[C@@]3(F)[C@@H](O)C[C@@]21C [CLOBETASOL PROPIONATE],> 30,–,> 30,25,> 30,–,> 30,> 10
CC(C)Cc1ccc([C@H](C)C(=O)O)cc1 [DEXIBUPROFEN],–,> 30,> 30,> 30,> 30,> 30,> 30,–
CNC[C@H](O)c1ccc(O)c(O)c1 [EPINEPHRINE],–,–,> 30,> 30,> 30,> 30,> 30,–
Cc1onc(-c2c(F)cccc2Cl)c1C(=O)N[C@@H]1C(=O)N2[C@@H]1SC(C)(C)[C@@H]2C(=O)O [FLOXACILLIN],–,> 30,> 30,> 30,> 30,> 30,> 30,–
COc1ccccc1OC1(C)OC(=O)c2ccccc2O1 (stereo not drawn) [GUAIMESAL],–,–,> 30,> 30,> 30,> 30,> 30,> 30
CCCCCCCN(CC)CCCC(O)c1ccc(NS(C)(=O)=O)cc1 (stereo not drawn) [IBUTILIDE],> 30,–,> 30,> 30,> 30,> 30,> 30,> 30
COc1cc(C(C)=O)ccc1OCCCN1CCC(c2noc3cc(F)ccc23)CC1 [ILOPERIDONE],> 10,0.055,> 30,> 30,> 30,2,> 30,–
CC[C@@H](CO)NC(=O)[C@@H]1C=C2c3cccc4c3c(cn4C)C[C@H]2N(C)C1 [METHYSERGIDE],> 10,–,> 30,> 10,> 30,> 10,> 30,> 30
CNC(=C[N+](=O)[O-])NCCSCc1csc(CN(C)C)n1 [NIZATIDINE],> 10,> 10,> 10,> 10,–,> 10,> 10,> 10
CN1Cc2c(N)cccc2C(c2ccccc2)C1 (stereo not drawn) [NOMIFENSINE],> 30,–,> 30,> 30,> 30,> 30,> 30,> 30
CC(CN1c2ccccc2Sc2ccccc21)N(C)C (stereo not drawn) [PROMETHAZINE],–,> 10,> 30,> 10,> 30,> 10,> 30,> 30
CCCc1cc(=O)[nH]c(=S)[nH]1 [PROPYLTHIOURACIL],> 10,> 10,> 10,> 10,–,> 10,> 10,> 10
Cn1cc(C(=O)[C@@H]2CCc3nc[nH]c3C2)c2ccccc21 [RAMOSETRON],17,–,> 30,> 30,> 30,> 30,> 30,> 30
CN(CCOc1ccc(CC2SC(=O)NC2=O)cc1)c1ccccn1 (stereo not drawn) [ROSIGLITAZONE],> 30,–,> 30,> 30,> 30,> 30,> 30,> 30
S=P(N1CC1)(N1CC1)N1CC1 [THIOTEPA],–,> 10,> 30,> 30,> 30,> 30,> 30,–
CC(C)C[C@H](NC(=O)[C@@H](O)[C@H](N)Cc1ccccc1)C(=O)O [UBENIMEX],> 30,> 30,–,–,–,> 30,–,–
COc1cc(C(=O)NS(=O)(=O)c2ccccc2C)ccc1Cc1cn(C)c2ccc(NC(=O)OC3CCCC3)cc12 [ZAFIRLUKAST],6.32,–,> 10,> 10,–,> 10,> 30,> 10
O=C1Cc2cc(CCN3CCN(c4nsc5ccccc45)CC3)c(Cl)cc2N1 [ZIPRASIDONE],–,–,> 30,> 10,> 30,> 10,> 30,> 30
